Data published in publication PMC11017401, “Novel molecular mechanism driving neuroprotection after soluble epoxide hydrolase inhibition: Insights for Alzheimer's disease therapeutics” (CNS Neuroscience & Therapeutics, 2023).
“Also recorded” adds a separate entry of the source. Marks after values point to notes of the source that are not given here.

Experiments:
Human primary astrocytes = assay: T/I/C-induced reactive astrocyte conversion (qPCR, western blot); assay type: cell-based
Method: A total quantity of 1 × 10^6 astrocytes isolated from CD1 mouse brain (ScienCell #M1800) or primary human astrocyte (ScienCell #1800) were seeded onto PLL‐coated 6‐well culture plates in astrocyte medium (ScienCell #1831 or #1801).
Astrocytes cultures were incubated in serum‐free condition for 24 h and pretreated for 30 min with UB‐SCG‐51 or p‐eIF2α signal inhibitor (Sigma, SML0843), followed by recombinant T/I/C: IL‐1α (3 ng/mL, Peprotech, Thermo Fisher), TNF‐α (30 ng/mL, R&D), C1q (400 ng/mL, R&D), or PBS for 24 h.
Microglia or astrocyte proteins were extracted by RIPA buffer (Thermo Fisher Scientific Inc.). Extracted proteins were separated by SDS/PAGE and subsequently transferred to nitrocellulose membranes (Bio‐Rad). Membranes were blocked in 3% BSA for 1 h at RT and incubated with primary antibodies (details in resource and reagent Table) overnight at 4°C, followed by incubation with Highly Cross‐Adsorbed Secondary Antibody, Alexa Fluor Plus 800 or 680 (Life Technologies) for 1 h at RT. Membranes visualized on Odyssey (LI‐COR Biosciences).
Microglia or astrocyte total RNAs were isolated by using a Quick‐RNA kit (Zymo Research, Inc.). The concentration of total RNAs was measured using a UV–Vis spectrophotometer (NanoDrop8000, Thermo Fisher Scientific Inc.) and reverse‐transcribed with a high‐capacity cDNA reverse transcription kit (Applied Biosystems). Gene expression was quantified by Fast SYBR green real‐time PCR on a Quantstudio 5 system (Applied Biosystems). Data were analyzed according to the comparative Ct method. Gapdh was used to normalize the amounts of cDNA within each sample.

[1] = tested on: PTZ-induced seizures in mice; assay: Pentylenetetrazol (PTZ) seizure test
Method: Then, a standard acute test involving the administration of pro‐convulsant PTZ was employed.[32], [33] Furthermore, the PTZ assay is considered highly translatable from mice to humans. In the test, PTZ was administered at 85 mg/Kg by the subcutaneous route and the time to onset of first clonic seizure, an average of clonic seizures, tonic seizure latency and lethality were monitored for 30 min.

[2] = 5 mg/Kg by gavage 1 h prior to PTZ 85 mg/Kg s.c.

Structure (SMILES)	C3 gene expression levels in co-treatment (Human primary astrocytes; T/I/C-activated astrocytes, SML0843 + UB-SCG-51, T/I/C alone about 10x control)	C3 gene expression in T/I/C-activated astrocytes, single treatment (Human primary astrocytes; human primary astrocytes, T/I/C 24 h)	effect of co-treatment with p-eIF2α signal inhibitor (SML0843) on the UB-SCG-51 effect on C3 gene expression (Human primary astrocytes; human primary astrocytes, T/I/C, SML0843 + UB-SCG-51)	onset of tonic seizures induced by PTZ vs vehicle ([1]; 5 mg/Kg by gavage)	Average clonic seizure (SEM) [1, 2]	Protected from tonic/total (Mortality) [1, 2]	Mean time to clonic seizure latency in seconds (SEM) ([1]; 5 mg/Kg by gavage 1 h prior to PTZ 85 mg/Kg s.c., monitored 30 min)	average seizure score ([1]; 5 mg/Kg by gavage, group comparison)
O=C(COc1ccc(Cl)cc1)NC1CCC(NC(=O)COc2ccc(Cl)cc2)CC1 (centres unmarked) [SML0843]	2 x fold	did not modify; also recorded: did not affect	partially block	–	–	–	–	–
CCC(=O)N1CCC(NC(=O)Nc2ccc(OC(F)(F)F)cc2)CC1 [TPPU]	–	–	–	delay the onset of tonic seizures	3.67 (0.56)**	5/6^****	605.33 (144.78) seconds	significant reduction
